Measurements published in publication PMC6536496, “Modulation of antibiotic sensitivity and biofilm formation in Pseudomonas aeruginosa by interspecies signal analogues” (Nature Communications, 2019).

Molecular target: T1, PA1396 (Pseudomonas aeruginosa, UniProt Q9I3U8)
T1 construct: reporter rows: PA1396 in P. aeruginosa cells
Test: auto-phosphorylation in liposomes, […] SDS-PAGE
Assay type: biochemical
Details: 10 mM MgCl2, 1 mM DTT, room temperature, 10 min

T1 sequence (Q9I3U8 entry or part of it): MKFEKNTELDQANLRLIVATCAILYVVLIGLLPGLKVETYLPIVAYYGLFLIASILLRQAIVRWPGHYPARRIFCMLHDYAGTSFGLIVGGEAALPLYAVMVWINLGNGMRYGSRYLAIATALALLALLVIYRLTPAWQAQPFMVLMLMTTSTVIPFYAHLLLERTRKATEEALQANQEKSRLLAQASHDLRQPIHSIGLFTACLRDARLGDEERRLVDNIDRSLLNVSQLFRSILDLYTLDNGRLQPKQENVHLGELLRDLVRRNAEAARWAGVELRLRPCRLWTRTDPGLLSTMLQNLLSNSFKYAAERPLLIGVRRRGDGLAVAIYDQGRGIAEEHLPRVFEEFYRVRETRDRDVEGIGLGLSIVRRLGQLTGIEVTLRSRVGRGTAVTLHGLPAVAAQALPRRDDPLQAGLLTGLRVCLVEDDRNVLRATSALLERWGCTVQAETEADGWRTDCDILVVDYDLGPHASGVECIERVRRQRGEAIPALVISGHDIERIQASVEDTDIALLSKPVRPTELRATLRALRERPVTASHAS

SMILES | auto-phosphorylation in liposomes, 32P SDS-PAGE (agonist, 10 µM) | auto-phosphorylation in liposomes, 32P SDS-PAGE (antagonist against 10 µM DSF)
CC(C)CCCCCCC/C=C\C(=O)O [C1, cis-11-methyl-2-dodecenoic acid] | addition of DSF to PA1396-loaded liposomes led to a robust increase in the level | 
CC(C)CCCCCCC/C=C\C(=O)NS(C)(=O)=O [C23, (Z)-11-methyl-N-(methylsulfonyl)dodec-2-enamide] |  | C23 blocks the recognition of DSF by PA1396
